Experimental data from US20210283107A1, “Methods to Expand the Spectrum of Gram-Positive Antibiotics” (NORTH CAROLINA STATE UNIVERSITY, priority 2016, published 2021).

Test system: AB5075
Assay: G. mellonella model infected with AB5075, survival
Assay type: in vivo, Galleria mellonella
Method: Galleria mellonella larvae (Speedy Worm, Alexandria, Minn.) were used within ten days of shipment from the vendor. After reception of worms, larvae were kept in the dark at room temperature for at least 24 h before infection. Larvae weighing between 200 to 300 mg were used in the survival assay. Using a 10 μL glass syringe (Hamilton, Reno, Nev.) fitted with a 30 G needle (Exel International, St. Petersburg, Fl), 5 μL of the desired compound and concentration were injected into the last left proleg. After 2.5 h, a second 5 μL injection containing 6×10^5 CFU of Acinetobacter baumannii 5075 was injected into the second to last left proleg. Injected worms were left at room temperature in the dark while being assessed at 24 h intervals over 6 days. […] Experiment was repeated 7 times using 10 larvae per experimental group.

Nc1nc(-c2ccc(NC(=O)c3cc(Cl)cc(Cl)c3)cc2)c[nH]1 [Compound 1]
survival rate after 6 days (combination treatment of clarithromycin (25 mg/kg) and compound 1 (100 mg/kg)): 42%
survival after 6 days (compound 1 alone at 100 mg/kg): 5%
